Assay [1] concerns stimulated human cardiac microvascular endothelial cells (HCMECs). As to the kind of experiment: Platelet activation on stimulated HCMECs (NAP-2, PF-4 in supernatant). The note with it: DS-IkL 30 μM, IkL peptide 450 μM, DS 30 μM, platelets 1 hour on TNF-α/IL-1β stimulated HCMECs. In kind it is cell-based. From the text:
Enhanced platelet activation and binding have been implicated in a multitude of chronic inflammatory diseases, including acute coronary and pulmonary syndromes (Lisman, T, Cell Tissue Res. 2018; 371(3):567-576). Activated platelets release cytokines such as platelet factor 4 (PF-4) and neutrophil activating peptide 2 (NAP-2) that can in turn activate neutrophils (Pitchford, S., D. Pan, and H. C. Welch. Curr. Opin. Hematol. 2017; 24(1):23-31). To test if treatment of inflamed endothelial cells with DS-IkL could reduce the activation of platelets as assessed by PF-4 and NAP-2 levels, platelets were allowed to interact with stimulated human cardiac microvascular endothelial cells (HCMECs, PromoCell) under standard culture conditions for 1 hour before supernatant was collected. Stimulation media was prepared by diluting to 0.4 ng/ml tumor necrosis factor alpha (TNF-α) and 0.3 ng/ml interleukin 1 beta (IL-1β) in complete endothelial growth medium MV (PromoCell).

Assay [2] has as its target T1, E-selectin (Homo sapiens, UniProt P16581).
T1 sequence (P16581 22-610): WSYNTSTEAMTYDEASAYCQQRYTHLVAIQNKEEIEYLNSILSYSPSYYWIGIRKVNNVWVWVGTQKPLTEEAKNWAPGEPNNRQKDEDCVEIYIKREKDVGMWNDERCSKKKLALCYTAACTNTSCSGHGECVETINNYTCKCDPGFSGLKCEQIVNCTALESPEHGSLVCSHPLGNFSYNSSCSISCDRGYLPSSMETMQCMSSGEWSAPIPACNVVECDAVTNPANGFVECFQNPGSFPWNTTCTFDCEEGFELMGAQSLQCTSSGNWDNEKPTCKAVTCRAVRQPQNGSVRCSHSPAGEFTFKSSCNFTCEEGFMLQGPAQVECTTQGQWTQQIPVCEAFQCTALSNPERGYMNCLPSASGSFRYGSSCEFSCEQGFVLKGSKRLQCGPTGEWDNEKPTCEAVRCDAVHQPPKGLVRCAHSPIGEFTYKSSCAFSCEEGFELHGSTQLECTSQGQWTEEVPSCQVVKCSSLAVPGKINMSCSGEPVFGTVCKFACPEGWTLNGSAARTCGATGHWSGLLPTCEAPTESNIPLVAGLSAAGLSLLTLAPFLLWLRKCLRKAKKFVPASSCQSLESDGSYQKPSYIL
As to the kind of experiment: PMN binding to E-selectin coated microspheres (flow cytometry). The note with it: IkL peptide 450 μM, DS-IkL15 30 μM; p<0.05; FIG. 9. Also on record: purchased R&D Systems. In kind it is cell-based. On the procedure: To validate the new molecule, fluorescent carboxylate microspheres were coated with recombinant human E-selectin (R&D Systems, Minneapolis, MN) using a PolyLink coupling kit (PolySciences Inc., Warrington, PA). Functionalized microspheres were treated with HBSS^+/+, EC-SEAL (30 μM), DS-IkL10 (30 μM), DS-IkL15 (30 μM), or GMI-1070 ([…]) for one hour. During this time, human neutrophils were isolated from whole blood using an established protocol. Briefly, 6 mL of whole blood were collected into an EDTA coated tube in accordance with the UC Davis Internal Review Board under IRB assurance No. 00004557. Neutrophils were isolated using an EasyStep Direct Human Neutrophil Isolation Kit (Stem Cell Technologies, Vancouver, BC, Canada), centrifuged, and resuspended in HBSS^+/+, with 0.1% human serum albumin (HSA) at 1×10^6 cells/mL. Cells were labeled with fluorescently tagged anti-CD15 for detection. Microspheres were pelleted and resuspended in 100 uL labeled neutrophils, then incubated for 30 minutes at room temperature with rotation (150 rpm). Samples were fixed in 4% PFA and read on an Attune NxT Flow Cytometer. Data was analyzed using FlowJo flow cytometry software (San Diego, Calif.) to determine the top three performing variants. This was repeated 2-6 times for an n of 3-7. […]
(Flow cytometry measures light scatter and fluorescence of single cells or particles in a stream.)

Assay [3] deals with T1, E-selectin. As to the kind of experiment: Binding to E-selectin coated surfaces (fluorescently tagged molecule, MFI). The note with it: increasing concentrations; MFI normalized to vehicle (HBSS); FIG. 6.
Protocol: (§1) P- and E-selectin coated surfaces were treated with fluorescently tagged DS-IkL (30 μM, empty bars) or DS (30 μM, filled bars). […] Data are represented as means±SEM. *p<0.05, **p<0.01, ***p<0.001. n=3 independent experiments.
Assay [4] addresses T2, P-selectin (Homo sapiens, UniProt P16109).
T2 sequence (P16109 42-830): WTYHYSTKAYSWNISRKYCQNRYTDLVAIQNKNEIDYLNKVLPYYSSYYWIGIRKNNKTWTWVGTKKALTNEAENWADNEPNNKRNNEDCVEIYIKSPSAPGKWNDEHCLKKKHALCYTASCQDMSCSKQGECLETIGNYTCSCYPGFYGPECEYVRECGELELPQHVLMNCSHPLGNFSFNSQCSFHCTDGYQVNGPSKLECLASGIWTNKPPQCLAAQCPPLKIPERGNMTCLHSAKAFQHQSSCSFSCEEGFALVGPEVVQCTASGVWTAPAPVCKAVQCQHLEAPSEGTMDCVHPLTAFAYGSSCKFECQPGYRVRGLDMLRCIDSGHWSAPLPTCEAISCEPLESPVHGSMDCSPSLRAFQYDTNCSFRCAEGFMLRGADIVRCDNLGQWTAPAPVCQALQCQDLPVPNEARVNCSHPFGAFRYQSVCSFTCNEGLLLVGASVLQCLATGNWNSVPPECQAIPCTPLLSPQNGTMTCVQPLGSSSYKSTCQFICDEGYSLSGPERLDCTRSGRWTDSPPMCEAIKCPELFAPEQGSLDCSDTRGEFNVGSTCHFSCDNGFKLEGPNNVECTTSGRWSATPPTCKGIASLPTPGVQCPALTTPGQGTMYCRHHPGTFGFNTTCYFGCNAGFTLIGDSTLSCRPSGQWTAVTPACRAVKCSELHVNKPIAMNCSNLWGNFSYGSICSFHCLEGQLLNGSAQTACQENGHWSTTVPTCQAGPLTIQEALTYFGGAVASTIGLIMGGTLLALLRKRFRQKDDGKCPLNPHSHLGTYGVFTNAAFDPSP
As to the kind of experiment: Binding to P-selectin coated surfaces (fluorescently tagged molecule, MFI). The note with it: increasing concentrations; MFI normalized to vehicle (HBSS); FIG. 6.
Protocol: as §1

Take “Ile-(D)lys-Leu-Leu-(D)pro-Hyp-Arg [IkL peptide]”: the “platelet activation as assessed by NAP-2” value in assay [1] (FIG. 7) was “reduced”. In addition, the “platelet activation as assessed by PF-4” value in assay [1] (FIG. 8) is “reduced”. The “neutrophil adhesion to microspheres” value in assay [2] is listed as “approximately 75 % of control”.
Take dermatan sulfate [DS]: the “binding to E-selectin coated surfaces” value in assay [3] was “not observed in the DS group”. Also, the “binding to P-selectin coated surfaces” value in assay [4] was “not observed in the DS group”.
